Key:
JAK3 enzyme [1] = target: T1, JAK3 enzyme (Homo sapiens, UniProt P52333); experiment: JAK Caliper Enzyme Assay at 4 μM ATP; format: biochemical
T1 sequence (P52333 1-1124): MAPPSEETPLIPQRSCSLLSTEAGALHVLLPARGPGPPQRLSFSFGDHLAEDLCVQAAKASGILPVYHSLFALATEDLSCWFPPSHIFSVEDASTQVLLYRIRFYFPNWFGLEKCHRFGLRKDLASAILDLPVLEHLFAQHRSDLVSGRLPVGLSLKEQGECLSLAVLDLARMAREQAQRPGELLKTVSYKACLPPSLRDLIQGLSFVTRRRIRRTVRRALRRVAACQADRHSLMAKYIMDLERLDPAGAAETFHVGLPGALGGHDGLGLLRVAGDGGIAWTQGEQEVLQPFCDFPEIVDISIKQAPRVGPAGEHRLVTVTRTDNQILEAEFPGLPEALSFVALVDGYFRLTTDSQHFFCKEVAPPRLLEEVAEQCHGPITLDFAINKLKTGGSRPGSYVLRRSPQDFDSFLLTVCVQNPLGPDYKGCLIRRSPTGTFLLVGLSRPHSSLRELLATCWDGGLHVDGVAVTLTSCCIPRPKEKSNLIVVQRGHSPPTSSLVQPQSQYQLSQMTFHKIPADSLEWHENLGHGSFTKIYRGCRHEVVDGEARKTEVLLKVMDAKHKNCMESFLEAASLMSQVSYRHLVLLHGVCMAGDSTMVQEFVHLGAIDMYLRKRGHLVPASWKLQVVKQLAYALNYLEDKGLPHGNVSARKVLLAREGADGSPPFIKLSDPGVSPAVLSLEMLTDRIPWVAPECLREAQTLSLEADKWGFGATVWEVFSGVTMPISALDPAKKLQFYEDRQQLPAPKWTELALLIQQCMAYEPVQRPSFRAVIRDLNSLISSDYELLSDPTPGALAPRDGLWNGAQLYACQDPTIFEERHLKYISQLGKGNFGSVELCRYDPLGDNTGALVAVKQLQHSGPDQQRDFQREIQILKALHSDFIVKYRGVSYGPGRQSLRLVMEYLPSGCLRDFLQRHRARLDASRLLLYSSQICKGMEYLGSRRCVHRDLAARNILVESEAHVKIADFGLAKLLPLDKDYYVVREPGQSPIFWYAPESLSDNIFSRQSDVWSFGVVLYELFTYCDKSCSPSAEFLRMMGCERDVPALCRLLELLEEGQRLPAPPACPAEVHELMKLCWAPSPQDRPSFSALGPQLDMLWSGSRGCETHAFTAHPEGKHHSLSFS
How it was run: (§1)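 Substrate conversion was kept within 20%-30% by adjusting enzyme and incubation for every preparation; peptide phosphorylation was quantified via on-chip mobility shift.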

JAK3 enzyme [2] = target: T1, JAK3 enzyme; experiment: JAK Caliper Enzyme Assay at 1 mM ATP; format: biochemical
How it was run: as §1

Structure (SMILES)	IC50 (JAK3 enzyme [1])	IC50 (JAK3 enzyme [2])
C=CC(=O)N1CCC(Oc2cnc3[nH]cc(C(=O)NCC(C)(C)C)c3n2)CC1 [Example 221, 2-[(1-acryloylpiperidin-4-yl)oxy]-N-(2,2-dimethylpropyl)-5H-pyrrolo[2,3-b]pyrazine-7-carboxamide]	0.0044 µM	0.713 µM
C=CC(=O)N1C[C@H](C2CC2)[C@H](Nc2cnc3[nH]cc(C(=O)NCC)c3n2)C1 [Example 238, 2-{[(3S,4S)-1-acryloyl-4-cyclopropylpyrrolidin-3-yl]amino}-N-ethyl-5H-pyrrolo[2,3-b]pyrazine-7-carboxamide]	0.00948 µM	1.36 µM
C=CC(=O)N1C[C@H](Nc2cnc3[nH]cc(C(=O)NCC)c3n2)[C@@](C)(C#N)C1 [Example 240, 2-{[(3R,4S)-1-acryloyl-4-cyano-4-methylpyrrolidin-3-yl]amino}-N-ethyl-5H-pyrrolo[2,3-b]pyrazine-7-carboxamide]	0.0109 µM	4.06 µM
C=CC(=O)N1CC(Nc2cnc3[nH]cc(C(=O)NCC(F)(F)F)c3n2)C2(CC2)C1 (centres unmarked) [Example 242, 2-[(5-acryloyl-5-azaspiro[2.4]hept-7-yl)amino]-N-(2,2,2-trifluoroethyl)-5H-pyrrolo[2,3-b]pyrazine-7-carboxamide]	0.0621 µM	> 10 µM
C=CC(=O)N1CC(Nc2cnc3[nH]cc(C(=O)NCC)c3n2)C2(CC2)C1 (centres unmarked) [Example 244, 2-[(5-acryloyl-5-azaspiro[2.4]hept-7-yl)amino]-N-ethyl-5H-pyrrolo[2,3-b]pyrazine-7-carboxamide]	0.0823 µM	> 10 µM
C=CC(=O)N1C[C@H](Nc2cnc3[nH]cc(C(=O)NCCOC)c3n2)C[C@@H]1COC [Example 246, 2-{[(3R,5R)-1-acryloyl-5-(methoxymethyl)pyrrolidin-3-yl]amino}-N-(2-methoxyethyl)-5H-pyrrolo[2,3-b]pyrazine-7-carboxamide]	0.00779 µM	1.11 µM
C=CC(=O)N1CC(Nc2cnc3[nH]cc(C(=O)NCCCC(F)(F)F)c3n2)C2(CC2)C1 (centres unmarked) [Example 249, 2-[(5-acryloyl-5-azaspiro[2.4]hept-7-yl)amino]-N-(4,4,4-trifluorobulyl)-5H-pyrrolo[2,3-b]pyrazine-7-carboxamide]	0.0753 µM	> 10 µM
C=CC(=O)N1C[C@H](Nc2cnc3[nH]cc(C(=O)NCC)c3n2)[C@](C)(C#N)C1 [Example 251, 2-{[(3R,4R)-1-acryloyl-4-cyano-4-methylpyrrolidin-3-yl]amino}-N-ethyl-5H-pyrrolo[2,3-b]pyrazine-7-carboxamide]	0.00512 µM	1.32 µM
C=CC(=O)N1C[C@@H](CC)[C@@H](Nc2cnc3[nH]cc(C(=O)NCCOC)c3n2)C1 [Example 257, 2-{[(3R,4R)-1-acryloyl-4-ethylpyrrolidin-3-yl]amino}-N-(2-methoxyethyl)-5H-pyrrolo[2,3-b]pyrazine-7-carboxamide]	0.0553 µM	6.46 µM
C=CC(=O)N1C[C@H](Nc2cnc3[nH]cc(C(=O)NCCOC)c3n2)C[C@H]1COC [Example 258, 2-{[(3R,5S)-1-acryloyl-5-(methoxymethyl)pyrrolidin-3-yl]amino}-N-(2-methoxyethyl)-5H-pyrrolo[2,3-b]pyrazine-7-carboxamide]	0.00623 µM	1.05 µM
C=CC(=O)N1C[C@H](Nc2cnc3[nH]cc(C(=O)NCCOC)c3n2)[C@H](C2CC2)C1 [Example 259, 2-{[(3R,4R)-1-acryloyl-4-cyclopropylpyrrolidin-3-yl]amino}-N-(2-methoxyethyl)-5H-pyrrolo[2,3-b]pyrazine-7-carboxamide]	0.18 µM	> 10 µM
C=CC(=O)N1C[C@H](Nc2cnc3[nH]cc(C(=O)NCC)c3n2)[C@H](C2CC2)C1 [Example 261, 2-{[(3R,4R)-1-acryloyl-4-cyclopropylpyrrolidin-3-yl]amino}-N-ethyl-5H-pyrrolo[2,3-b]pyrazine-7-carboxamide]	0.259 µM	> 10 µM
C=CC(=O)N1C[C@H](Nc2cnc3[nH]cc(C(=O)NCC)c3n2)C[C@@H]1COC [Example 262, 2-{[(3R,5R)-1-acryloyl-5-(methoxymethyl)pyrrolidin-3-yl]amino}-N-ethyl-5H-pyrrolo[2,3-b]pyrazine-7-carboxamide]	0.0116 µM	2.18 µM
C=CC(=O)N1C[C@H](C)[C@H](Nc2cnc3[nH]cc(C(=O)NCCOC)c3n2)C1 [Example 264, 2-{[(3S,4S)-1-acryloyl-4-methylpyrrolidin-3-yl]amino}-N-(2-methoxyethyl)-5H-pyrrolo[2,3-b]pyrazine-7-carboxamide]	0.00241 µM	0.479 µM

Further compounds by falling IC50 (JAK3 enzyme [1]), results first:

IC50 (JAK3 enzyme [1])	IC50 (JAK3 enzyme [2])	Structure (SMILES)
0.11 µM	> 10 µM	C=CC(=O)N1CC(Nc2cnc3[nH]cc(C(=O)NCCC(F)(F)F)c3n2)C2(CC2)C1 (centres unmarked) [Example 252, 2-[(5-acryloyl-5-azaspiro[2.4]hept-7-yl)amino]-N-(3,3,3-trifluoropropyl)-5H-pyrrolo[2,3-b]pyrazine-7-carboxamide]
0.0524 µM	6.46 µM	C=CC(=O)N1C[C@@H](CC)[C@@H](Nc2cnc3[nH]cc(C(=O)NCC)c3n2)C1 [Example 263, 2-{[(3R,4R)-1-acryloyl-4-ethylpyrrolidin-3-yl]amino}-N-ethyl-5H-pyrrolo[2,3-b]pyrazine-7-carboxamide]
0.0451 µM	6.55 µM	C=CC(=O)N1CC(Nc2cnc3[nH]cc(C(=O)NCC(C)C)c3n2)C2(CC2)C1 (centres unmarked) [Example 236, 2-[(5-acryloyl-5-azaspiro[2.4]hept-7-yl)amino]-N-(2-methylpropyl)-5H-pyrrolo[2,3-b]pyrazine-7-carboxamide]
0.0179 µM	2.27 µM	C=CC(=O)N1CC[C@@H](Nc2cnc3[nH]cc(C(=O)NCC)c3n2)C1 [Example 234, 2-{[(3R)-1-acryloylpyrrolidin-3-yl]amino}-N-ethyl-5H-pyrrolo[2,3-b]pyrazine-7-carboxamide]
0.00679 µM	1.1 µM	C=CC(=O)N1C[C@H](Nc2cnc3[nH]cc(C(=O)NCCOC)c3n2)C[C@H]1COCC [Example 233, 2-{[(3R,5S)-1-acryloyl-5-(ethoxymethyl)pyrrolidin-3-yl]amino}-N-(2-methoxyethyl)-5H-pyrrolo[2,3-b]pyrazine-7-carboxamide]
0.00431 µM	0.798 µM	C=CC(=O)N1C[C@H](Nc2cnc3[nH]cc(C(=O)NCC)c3n2)C[C@H]1COCC [Example 250, 2-{[(3R,5S)-1-acryloyl-5-(ethoxymethyl)pyrrolidin-3-yl]amino}-N-ethyl-5H-pyrrolo[2,3-b]pyrazine-7-carboxamide]
0.00379 µM	0.857 µM	C=CC(=O)N1C[C@H](CC)[C@H](Nc2cnc3[nH]cc(C(=O)NCC)c3n2)C1 [Example 241, 2-{[(3S,4S)-1-acryloyl-4-ethylpyrrolidin-3-yl]amino}-N-ethyl-5H-pyrrolo[2,3-b]pyrazine-7-carboxamide]
0.00378 µM	0.757 µM	C=CC(=O)N1C[C@H](Nc2cnc3[nH]cc(C(=O)NCC)c3n2)C[C@H]1COC [Example 239, 2-{[(3R,5S)-1-acryloyl-5-(methoxymethyl)pyrrolidin-3-yl]amino}-N-ethyl-5H-pyrrolo[2,3-b]pyrazine-7-carboxamide]
0.00334 µM	0.829 µM	C=CC(=O)N1C[C@H](C2CC2)[C@H](Nc2cnc3[nH]cc(C(=O)NCCOC)c3n2)C1 [Example 247, 2-{[(3S,4S)-1-acryloyl-4-cyclopropylpyrrolidin-3-yl]amino}-N-(2-methoxyethyl)-5H-pyrrolo[2,3-b]pyrazine-7-carboxamide]
0.00327 µM	0.463 µM	C=CC(=O)N1CCC(Oc2cnc3[nH]cc(C(=O)N[C@@H]4C[C@H]4C(F)(F)F)c3n2)CC1 [Example 216, 2-[(1-acryloylpiperidin-4-yl)oxy]-N-[(1R,2R)-2-(trifluoromethyl)cyclopropyl]-5H-pyrrolo[2,3-b]pyrazine-7-carboxamide]
0.0025 µM	0.606 µM	C=CC(=O)N1C[C@H](Nc2cnc3[nH]cc(C(=O)NCCOC)c3n2)[C@@](C)(C#N)C1 [Example 232, 2-{[(3R,4S)-1-acryloyl-4-cyano-4-methylpyrrolidin-3-yl]amino}-N-(2-methoxyethyl)-5H-pyrrolo[2,3-b]pyrazine-7-carboxamide]

— patent US10703756B2, “Pyrrolo[2,3-D]pyrimidinyl, pyrrolo[2,3-B]pyrazinyl, pyrrolo[2,3-B]pyridinyl acrylamides and epoxides thereof” (Pfizer Inc., priority 2015, dated 2020)
